Laboratory results: patent US20250288548A1, “INTRANASAL BACLOFEN” (THE REGENTS OF THE UNIVERSITY OF CALIFORNIA, priority 2022, published 2025)

What was measured:
[1] = tested on: patients with new acquired brain injury; assay: Intranasal baclofen study in about 40 hospitalized patients (measured torque response, clinical response); type: in vivo, human
Description: FIG. 1 represents the summarized results of a study of about 40 patients. Grey bars represent patients treated with nasal baclofen, and white bars represent placebo. Bars to the left (negative) represent reduced tone, and right (positive) is worse tone. The middle line is no change. Statistically significant results are provided with error bars in this figure.
The first bar chart from left to right is baseline compared to visit 2 low dose (250 mcg). The second bar chart from left to right is baseline compared to visit 3 moderate dose (1000 mcg). The third bar chart from left to right is baseline compared to visit 4 high dose (2000 mcg). The fourth bar chart from left to right is baseline compared to visit 5 weaned off back to baseline (providing some residual effect). The p-values for the third panel, which represents the high dose are: Treatment p-value 0.004959, and Control p-value 0.232.
Forty (40) hospitalized patients with new acquired brain injury acutely treated in the PICU have been treated with intranasal baclofen. Aqueous intranasal solutions comprising 250 mcg, 1000 mcg, and/or 2000 mcg of baclofen and […] of sodium chloride per mL exploiting the nasal pathway have delivered baclofen to the CNS by circumventing the BBB. […]

[2] = tested on: patient with increased tone after explantation of intrathecal baclofen pump; assay: Individual intranasal baclofen test dose in PICU patient; type: in vivo, human; details: gablofen 2-50 mcg vials delivered intranasally as one administration; all enteral medications held
Description: A patient was admitted to a pediatric intensive care unit (PICU) due to increased tone after the patient had underwent surgical explantation of an intrathecal baclofen pump. The patient was on maximum doses of several enteral medications including enteral baclofen. They were given a test dose of intranasal baclofen administered in the PICU using commercially prepared intrathecal baclofen for test dose (gablofen 2-50 mcg vials delivered intranasally as one administration).

[3] = enteral doses ranging from 30 to 90 mg; cited from earlier work
[4] = at therapeutically effective intrathecal concentrations; cited from earlier work
[5] = solutions containing phosphate, sulfate, potassium, or magnesium; per U.S. Pat. No. 9,180,108 (also printed: greater than 4, 5, 6, 7 mg/mL); cited from earlier work
[6] = excised bovine nasal tissues; concentration independent transport, no polarized flux; cited from earlier work

NCC(CC(=O)O)c1ccc(Cl)cc1 (centres unmarked) [baclofen, 4-amino-3-(p-chlorophenyl) butyric acid]
response compared with enteral baclofen ([1]; intranasal 250, 1000 and/or 2000 mcg solutions, versus maximized enteral baclofen dose (>90 mg/day)): far greater than that observed with enteral baclofen | sedation compared with enteral baclofen ([1]; intranasal administration): far less sedation | change in tone after intranasal test dose [2]: Significant improvement in tone | CSF levels [3]: 0.012 to 0.096 µg/mL | plasma levels [3]: 50 to 650 ng/mL | plasma concentrations with intrathecal injection relative to oral/enteral administration [4]: 100 times less | concentration of baclofen that can be dissolved [5]: greater than 2 mg/mL | mechanism of absorption across nasal tissues [6]: primarily absorbed via simple passive diffusion
